Test results as given in publication PMC7918520, “From Data Mining of Chitinophaga sp. Genome to Enzyme Discovery of a Hyperthermophilic Metallocarboxypeptidase” (Microorganisms, 2021).
Peptide text beside a SMILES is read from it. * marks the point of attachment. Cbz = O=C(OCc1ccccc1)*

Columns and labels:
[1] = biological target: T1, ChtCP (Chitinophaga sp. CB10, UniProt A0A822ZZF9); assay: Cd-ninhydrin assay of released amino acids, A500, Michaelis-Menten fit; type: biochemical; conditions: 50 mM HEPES pH 8.0, 65 °C; substrate 0.195 to 25 mM; metal addition not stated
T1 construct: homodimer; motifs 76HHPEL80 and 267HEXXH271
Description: Cd-ninhydrin assay of released amino acids, A500, Michaelis-Menten fit on ChtCP

[2] = biological target: ChtCP, M32 family metallocarboxypeptidase from Chitinophaga sp. CB10 (Chitinophaga sp. CB10); assay: SEC; HiLoad Superdex 200 16/60, 20 mM Tris-HCl pH 8, 200 mM NaCl, 0.5% glycerol, 4 °C, 1 mL/min; elution volume compared with mass standards

T1 sequence (A0A822ZZF9 entry or part of it): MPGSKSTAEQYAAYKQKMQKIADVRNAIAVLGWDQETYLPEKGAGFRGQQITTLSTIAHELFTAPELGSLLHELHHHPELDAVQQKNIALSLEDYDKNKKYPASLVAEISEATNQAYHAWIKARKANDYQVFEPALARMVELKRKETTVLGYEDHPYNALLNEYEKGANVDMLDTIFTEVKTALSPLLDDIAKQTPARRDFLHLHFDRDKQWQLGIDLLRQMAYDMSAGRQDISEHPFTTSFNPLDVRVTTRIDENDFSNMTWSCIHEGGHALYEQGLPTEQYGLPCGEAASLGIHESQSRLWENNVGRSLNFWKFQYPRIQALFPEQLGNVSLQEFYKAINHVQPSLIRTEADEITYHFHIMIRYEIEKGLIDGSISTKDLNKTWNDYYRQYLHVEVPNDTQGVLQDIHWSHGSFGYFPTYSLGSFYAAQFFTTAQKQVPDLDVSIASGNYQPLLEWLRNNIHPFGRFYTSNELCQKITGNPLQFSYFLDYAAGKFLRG

Compound	Km [1]	stoichiometry N [2]
C[C@H](NC(=O)[C@H](C)NC(=O)OCc1ccccc1)C(=O)O [ZAA, benzyloxycarbonyl Ala-Ala] (Cbz-Ala-Ala-OH)	28.1 mM	
C[C@H](NC(=O)OCc1ccccc1)C(=O)N[C@@H](CC(N)=O)C(=O)O [ZAN, benzyloxycarbonyl Ala-Asn] (Cbz-Ala-Asn-OH)	34.1 mM	
ChtCP, M32 family metallocarboxypeptidase from Chitinophaga sp. CB10 (enzyme)		2

Results, then the compound that gave them:

Km [1]	stoichiometry N [2]	Compound
3.51 mM		C[C@H](NC(=O)OCc1ccccc1)C(=O)N[C@@H](CCCNC(=N)N)C(=O)O [ZAR, benzyloxycarbonyl Ala-Arg] (Cbz-Ala-Arg-OH)
1.1 mM		C[C@H](NC(=O)OCc1ccccc1)C(=O)N[C@@H](Cc1c[nH]c2ccccc12)C(=O)O [ZAW, benzyloxycarbonyl Ala-Trp] (Cbz-Ala-Trp-OH)
